Test results published in US8445501B2, “Substituted 7-carboxamido-pyrrolo[3,2-d]pyrimidines” (Takeda GmbH, priority 2008, dated 2013).

Biological target: T1, human PDE5 (Homo sapiens, UniProt O76074)
T1 construct: from tissue; host or cells: platelets from fresh blood of human donors (lysate, 10,000 g supernatant)
Assay: Inhibition of the type 5 phosphodiesterase (PDE5) activity, modified SPA test with platelet lysate
Type: biochemical
Conditions: PDE5 from human platelet lysate, 0.5 μM cGMP
Summary of the method: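 Human platelet lysate (10,000 g supernatant) as PDE5 source in SPA with 0.5 μM cGMP plus [3H]cGMP tracer, pH 7.4, 5 mM Mg2+, 1 μM motapizone and 10 nM PDE2 inhibitor; 10–20% conversion. 5 min preincubation, 15 min at 37 °C, stopped with SPA beads/IBMX. IC50 by non-linear regression.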

| Structure (SMILES) | IC50 [nM] |
| --- | --- |
| CCOc1ccc2c(c1-c1ncnc3c(C(=O)NC4CCN(C(=O)CC)CC4)c[nH]c13)OCO2 [Example 133, 4-(5-Ethoxy-benzo[1,3]dioxol-4-yl)-5H-pyrrolo[3,2-d]pyrimidine-7-carboxylic acid (1-propionyl-piperidin-4-yl)-amide] | 0.631 |
| CCOC(=O)N1CCC(NC(=O)c2c[nH]c3c(-c4c(OCC)ccc5c4OCO5)ncnc23)CC1 [Example 134, 4-{[4-(5-Ethoxy-benzo[1,3]dioxol-4-yl)-5H-pyrrolo[3,2-d]pyrimidine-7-carbonyl]-amino}-piperidine-1-carboxylic acid ethyl ester] | 0.347 |
| CCOc1ccc2c(c1-c1ncnc3c(C(=O)N[C@@H]4CCN(C(=O)CC)C4)c[nH]c13)OCO2 [Example 136, 4-(5-Ethoxy-benzo[1,3]dioxol-4-yl)-5H-pyrrolo[3,2-d]pyrimidine-7-carboxylic acid ((R)-1-propionyl-pyrrolidin-3-yl)-amide] | 3.72 |
| CCOC(=O)N1CC[C@@H](NC(=O)c2c[nH]c3c(-c4c(OCC)ccc5c4OCO5)ncnc23)C1 [Example 137, (R)-3-{[4-(5-Ethoxy-benzo[1,3]dioxol-4-yl)-5H-pyrrolo[3,2-d]pyrimidine-7-carbonyl]-amino}-pyrrolidine-1-carboxylic acid ethyl ester] | 2.24 |
| CCOc1ccc2c(c1-c1ncnc3c(C(=O)N[C@@H]4CCN(C(=O)COC)C4)c[nH]c13)OCO2 [Example 138] | 6.03 |
| CCCOc1ccc2c(c1-c1ncnc3c(C(=O)NC4CCN(C(=O)CC)CC4)c[nH]c13)OCO2 [Example 139, 4-(5-Propoxy-benzo[1,3]dioxol-4-yl)-5H-pyrrolo[3,2-d]pyrimidine-7-carboxylic acid (1-propionyl-piperidin-4-yl)-amide] | 0.204 |

Second part, the compound after the results:

| IC50 [nM] | Structure (SMILES) |
| --- | --- |
| 0.209 | COCC(=O)N[C@H]1CC[C@H](NC(=O)c2c[nH]c3c(-c4c(OCC5CCC5)ccc5c4OCO5)ncnc23)CC1 [Example 128, trans-4-(5-Cyclobutylmethoxy-benzo[1,3]dioxol-4-yl)-5H-pyrrolo[3,2-d]pyrimidine-7-carboxylic acid [4-(2-methoxy-ethanoylamino)-cyclohexyl]-amide] |
| 0.389 | CC(=O)N1CCC(NC(=O)c2c[nH]c3c(-c4c(OCC5CCC5)ccc5c4OCO5)ncnc23)CC1 [Example 129, 4-(5-Cyclobutylmethoxy-benzo[1,3]dioxol-4-yl)-5H-pyrrolo[3,2-d]pyrimidine-7-carboxylic acid (1-acetyl-piperidin-4-yl)-amide] |
| 0.126 | O=C(NC1CCN(C(=O)C2CC2)CC1)c1c[nH]c2c(-c3c(OCC4CCC4)ccc4c3OCO4)ncnc12 [Example 130, 4-(5-Cyclobutylmethoxy-benzo[1,3]dioxol-4-yl)-5H-pyrrolo[3,2-d]pyrimidine-7-carboxylic acid [1-(1-cyclopropyl-methanoyl)-piperidin-4-yl]-amide] |
| 0.49 | COCC(=O)N1CCC(NC(=O)c2c[nH]c3c(-c4c(OCC5CCC5)ccc5c4OCO5)ncnc23)CC1 [Example 131, 4-(5-Cyclobutylmethoxy-benzo[1,3]dioxol-4-yl)-5H-pyrrolo[3,2-d]pyrimidine-7-carboxylic acid [1-(2-methoxy-ethanoyl)-piperidin-4-yl]amide] |
| 0.295 | CCOC(=O)N1CCC(NC(=O)c2c[nH]c3c(-c4c(OCC5CCC5)ccc5c4OCO5)ncnc23)CC1 [Example 132, 4-({1-[4-(5-Cyclobutylmethoxy-benzo[1,3]dioxol-4-yl)-5H-pyrrolo[3,2-d]pyrimidin-7-yl]-methanoyl}-amino)-piperidine-1-carboxylic acid ethyl ester] |
| 2 | CCOc1ccc2c(c1-c1ncnc3c(C(=O)NC4CCN(C(=O)COC)CC4)c[nH]c13)OCO2 [Example 135, 4-(5-Ethoxy-benzo[1,3]dioxol-4-yl)-5H-pyrrolo[3,2-d]pyrimidine-7-carboxylic acid [1-(2-methoxy-acetyl)piperidin-4-yl]-amide] |
